These results are taken from ChEMBL document CHEMBL3813668, “Design, synthesis, and biological evaluation of anti-EV71 agents” (Bioorg Med Chem Lett, 2016).

Bounds are passed on as bounds.

One series deals with Enterovirus A71. Put plainly: Antiviral activity against Enterovirus 71/Shenzhen/120F1/09 infected in human RD cells assessed as reduction in virus induced cell death after 72 hrs by CCK-8 assay. In kind it is functional, organism-based. The settings on record: Enterovirus A, Shenzhen/120F1/09, RD. In general terms: Tetrazolium dyes change colour on reduction, which living cells bring about.

The nature of series [1]: Metabolic stability in mouse plasma assessed as compound remaining after 2 hrs. In kind it is ADME, cell-free. The settings on record: read-out: Stability.
The nature of series [2]: Volume of distribution in mouse at 2 mg/kg, iv. The settings on record: in vivo. It is filed as ADME, organism-based.
Series [3] in a line: Half life in mouse at 2 mg/kg, iv. It is filed as ADME, organism-based. The settings on record: in vivo.
Series [4] can be described thus: Clearance in mouse at 2 mg/kg, iv. In kind it is ADME, organism-based. The settings on record: in vivo.
A short description of series [5]: AUC in mouse at 2 mg/kg, iv. It is filed as ADME, organism-based. The settings on record: in vivo.
Series [6] is described as follows: Cmax in mouse at 5 mg/kg, ip. It is filed as ADME, organism-based. More on the design: dose 5 mg/kg, route intraperitoneal. The settings on record: in vivo.
Series [7] in a line: Bioavailability in mouse at 5 mg/kg, ip. The settings on record: in vivo. It is filed as ADME, organism-based.
Series [8] is described as follows: Half life in mouse at 5 mg/kg, ip. It is filed as ADME, organism-based. Particulars: in vivo.
A short description of series [9]: AUC in mouse at 5 mg/kg, ip. It is filed as ADME, organism-based. The settings on record: in vivo.
A further series has as its system rhinovirus B14. In words: Antiviral activity against HRV-14 infected in H1HeLa cells after 2 days by XTT assay. It is filed as functional, organism-based. The settings on record: Rhinovirus B, H1-HeLa, 48 h.

Regarding `Cc1cc(C(=O)N[C@H](C(=O)C[C@@H](Cc2ccc(F)cc2)C(=O)N[C@H](/C=C/C(=O)N2CCCC2)C[C@@H]2CCNC2=O)C(C)C)no1`, in the series with Enterovirus A71, the EC50 was 12000 nM. Also, the remaining at 2 h in series [1] was 82%.

On to `Cc1cc(C(=O)N[C@H](C(=O)C[C@@H](Cc2ccc(F)cc2)C(=O)N[C@H](/C=C/C(=O)N2CCc3cc(Cl)ccc32)C[C@@H]2CCNC2=O)C(C)C)no1`, for which, in the series on Enterovirus A71, the 50% effective concentration (EC50) worked out at 180 nM. In [1], the remaining at 2 h is 26%.

`Cc1cc(C(=O)N[C@H](C(=O)C[C@@H](Cc2ccc(F)cc2)C(=O)N[C@H](/C=C/C(=O)OC2CCC2)C[C@@H]2CCNC2=O)C(C)C)no1`: the EC50 in the series on Enterovirus A71 turned out to be 260 nM. Also, the remaining at 2 h in series [1] was 5.3%.

Consider `CCOC(=O)/C=C/[C@H](C[C@@H]1CCNC1=O)NC(=O)[C@H](Cc1ccc(F)c(F)c1)n1ccc2ccn(C)c2c1=O`, for which the EC50 with Enterovirus A71 is above 100000 nM.

For the compound `Cc1cc(C(=O)N[C@H](C(=O)C[C@@H](Cc2ccc(F)cc2)C(=O)N[C@H](/C=C/C(=O)N2CCC(F)(F)CC2)C[C@@H]2CCNC2=O)C(C)C)no1`, the EC50 in the series with Enterovirus A71 is 1240 nM. The remaining at 2 h in series [1] was 63%.

With `O=C1OCC/C1=C\[C@H](C[C@@H]1CCNC1=O)NC(=O)[C@H](Cc1ccc(F)c(F)c1)n1ccc2cc[nH]c2c1=O`, the EC50 in the series with Enterovirus A71 was found to be 13100 nM. Also, the remaining at 2 h in series [1] is 80%.

In the case of `CCOC(=O)/C=C/[C@H](C[C@@H]1CCNC1=O)NC(=O)[C@H](Cc1ccc(F)c(F)c1)n1ccc2cc(-c3ccccc3F)[nH]c2c1=O`, the EC50 in the series with Enterovirus A71 was found to be 1020 nM. Moreover, in series [1], the remaining at 2 h stood at 0%.

As to `Cc1cc(C(=O)N[C@H](C(=O)C[C@@H](Cc2ccc(F)cc2)C(=O)N[C@H](/C=C/C(=O)OCc2ccccc2)C[C@@H]2CCNC2=O)C(C)C)no1`, the EC50 in the series with Enterovirus A71 stood at 140 nM. The remaining at 2 h in series [1] amounted to 2.4%.

In the case of `Cc1cc(C(=O)N[C@H](C(=O)C[C@@H](Cc2ccc(F)cc2)C(=O)N[C@H](/C=C/C(=O)N2CCOCC2)C[C@@H]2CCNC2=O)C(C)C)no1`, in the series on Enterovirus A71, the EC50 was 8920 nM. Further, in [1], the remaining at 2 h was 88%.

`O=C1OCC/C1=C\[C@H](C[C@@H]1CCNC1=O)NC(=O)[C@H](Cc1ccc(F)c(F)c1)n1ccc2cc(-c3ccccc3F)[nH]c2c1=O`: the volume of distribution (Vd) in series [2] was 8.8 L/kg. For the same compound, the EC50 in the series with Enterovirus A71 came to 340 nM. For the same compound, the remaining at 2 h in [1] worked out at 92%. The compound also gave a half-life in series [3] of 75.6 min. This compound also showed a clearance in series [4] of 140 mL/min/kg. For the same compound, the AUC in series [5] was determined as 0.25 µM·h.

The compound `Cc1cc(C(=O)N[C@H](C(=O)C[C@@H](Cc2ccc(F)cc2)C(=O)N[C@H](/C=C2\CCOC2=O)C[C@@H]2CCNC2=O)C(C)C)no1` showed a Cmax in series [6] of 2570 nM. The same compound displayed a Vd in series [2] of 1.6 L/kg. For the same compound, the bioavailability in [7] was 115%. For the same compound, the half-maximal effective concentration (EC50) with Enterovirus A71 was 28 nM. Also, the remaining at 2 h in series [1] was 88%. The half-life in [3] was 12 min; in series [8], 10.8 min. Further, the clearance in series [4] was determined as 130 mL/min/kg. Moreover, the AUC in [5] came out at 0.444 µM·h; in series [9] it was 1.28 µM·h.

Take `CCOC(=O)/C=C/[C@H](C[C@@H]1CCNC1=O)NC(=O)[C@H](Cc1ccc(F)c(F)c1)n1ccc2cc[nH]c2c1=O`: in the series with Enterovirus A71, the EC50 came out at 3560 nM. Besides, the remaining at 2 h in series [1] amounted to 1%.

With `CCOC(=O)/C=C/[C@H](C[C@@H]1CCNC1=O)NC(=O)[C@H](Cc1ccc(F)c(F)c1)n1ccc2ccn(-c3ccccn3)c2c1=O`, in the series on Enterovirus A71, the EC50 was above 100000 nM. Moreover, in [1], the remaining at 2 h came to 0.9%.

As for `CCOC(=O)/C=C/[C@H](C[C@@H]1CCNC1=O)NC(=O)[C@H](Cc1ccc(F)c(F)c1)n1ccc2ccn(CC3CC3)c2c1=O`, the EC50 in the series on Enterovirus A71 is above 100000 nM.

Consider `Cc1cc(C(=O)N[C@H](C(=O)C[C@@H](Cc2ccc(F)cc2)C(=O)N[C@H](/C=C/S(C)(=O)=O)C[C@@H]2CCNC2=O)C(C)C)no1`, for which, in the series on Enterovirus A71, the EC50 was determined as 1510 nM.

Consider `O=C1OCC/C1=C\[C@H](C[C@@H]1CCNC1=O)NC(=O)[C@H](Cc1ccc(F)c(F)c1)n1ccc2cc(Br)[nH]c2c1=O`, for which, in the series with Enterovirus A71, the EC50 worked out at 2010 nM. In addition, the remaining at 2 h in [1] came to 77%.

As for `CCOC(=O)/C=C/[C@H](C[C@@H]1CCNC1=O)NC(=O)[C@@H](CC(=O)[C@@H](NC(=O)c1cc(C)on1)C(C)C)Cc1ccc(F)cc1` [RUPINTRIVIR], the EC50 in the series with Enterovirus A71 amounted to 9 nM. For the same compound, the remaining at 2 h in series [1] worked out at 2.7%.

With `CCOC(=O)/C=C/[C@H](C[C@@H]1CCNC1=O)NC(=O)[C@H](Cc1ccccc1)n1ccc2cc[nH]c2c1=O`, the EC50 with rhinovirus B14 stood at 1270 nM.

As for `Cc1cc(C(=O)N[C@H](C(=O)C[C@@H](Cc2ccc(F)cc2)C(=O)N[C@H](/C=C/S(=O)(=O)c2nccs2)C[C@@H]2CCNC2=O)C(C)C)no1`, the EC50 in the series with Enterovirus A71 was determined as 520 nM. Moreover, the remaining at 2 h in series [1] was determined as 24%.

Consider `CCOC(=O)/C=C/[C@H](C[C@@H]1CCNC1=O)NC(=O)[C@H](Cc1ccc(F)c(F)c1)n1ccc2cc(Br)[nH]c2c1=O`, for which the EC50 in the series with Enterovirus A71 worked out at 500 nM. For the same compound, the remaining at 2 h in [1] was 0.3%.

Take `Cc1cc(C(=O)N[C@H](C(=O)C[C@@H](Cc2ccc(F)cc2)C(=O)N[C@H](/C=C/C(=O)N2CCC(F)(F)C2)C[C@@H]2CCNC2=O)C(C)C)no1`: the EC50 in the series with Enterovirus A71 is 760 nM. Further, the remaining at 2 h in series [1] stood at 54%.

Regarding `CCOC(=O)/C=C/[C@H](C[C@@H]1CCNC1=O)NC(=O)[C@H](Cc1ccc(F)c(F)c1)n1ccc2ccn(Cc3ccccc3)c2c1=O`, the EC50 in the series with Enterovirus A71 was above 100000 nM.

As for `Cc1cc(C(=O)N[C@H](C(=O)C[C@@H](Cc2ccc(F)cc2)C(=O)N[C@H](/C=C2\CC(C)OC2=O)C[C@@H]2CCNC2=O)C(C)C)no1` (stereo not given in full), in the series with Enterovirus A71, the half-maximal effective concentration (EC50) came out at 220 nM. Moreover, the remaining at 2 h in series [1] was determined as 81%.

With `CCOC(=O)/C=C/[C@H](C[C@@H]1CCNC1=O)NC(=O)[C@H](Cc1ccc(F)cc1)n1cccc(NC(=O)c2cc(C)on2)c1=O`, the EC50 with rhinovirus B14 stood at 2 nM. In addition, the remaining at 2 h in [1] was found to be 1.4%.

The EC50 is the midpoint of the concentration-response curve. One may read the Vd as the apparent volume that relates the amount in the body to the concentration in plasma or blood. A higher Vd goes with wide distribution into tissue. As a reminder, the half-life is the time in which the quantity being followed falls by half. High values mean slow decline, low ones rapid decline. By clearance is commonly meant a measure of how efficiently the substance is removed, as volume per time. As usually defined, the AUC is the area under the concentration-time curve, a measure of exposure. Higher therefore signals high exposure. The Cmax is the peak of the concentration-time curve.
